Measured values published in US12077608B2, “Stapled H2 pyrin peptides” (H. LEE MOFFITT CANCER CENTER AND RESEARCH INSTITUTE, INC., priority 2018, dated 2024).
Bridge positions count the residues as written; N and C are the ends. Square brackets hold non-standard residues; d marks the D form. Ends that are not written are not given here. Peptide text beside a SMILES is read from it. * marks the point of attachment. FITC = O=C1OC2(c3ccc(O)cc3Oc3cc(O)ccc32)c2ccc(NC(=S)*)cc21; S5 = C=CCCC[C@](C)(N)C(=O)O; Nle = CCCC[C@H](N)C(=O)O; βAla = NCCC(=O)O

Key:
[1] = tested on: ASC speck formation in THP-1 ASC-GFP cells; test: ASC speck assay, live-cell imaging; type: cell-based, Human; settings: for ASC speck formation remaining with inhibitor: 5 μM peptide, nigericin at 5 μM gives 38%
Procedure: ASC speck is a hallmark of inflammasome formation (Dick et al., 2016; Hoss et al., 2017) and observable by microscopy (Doyle et al., 2012; Stutz et al., 2013). THP-1 ASC-GFP cells stably expressing the ASC-GFP fusion protein (InvivoGen Catalog #: thp-ascgfp) were used to visualize the inhibitory effect of SAH-POP1-4 on ASC specks formation (Fernandes-Alnemri et al., 2007).
Experimental Procedure for ASC Speck Assay. THP1 ASC-GFP cells were seeded at 2×10^6/ml (0.7-1 mL) in RPMI1640 medium with 10% FCS in FluoroDish (FD35-100) and cultivated in the presence of 50 nM phorbol-12-myristate-13-acetate (PMA) for 24 h, then media was replaced by fresh media and incubated for 24 h. Then cells were stimulated with 200 ng/ml LPS from E. coli (sigma) for 3 h. The media was removed and replaced with serum-free medium (OptiMEM) containing DMSO (1:1,000), 20 μM inhibitors for 30 min. […] Control samples were incubated with media lacking LPS or nigericin. Then, ASC specks were tested by confocal microscopy SP8 (Leica Microsystems).
ASC speck is the hallmark of inflammasome formation and observable by microscopy. THP-1 ASC-GFP cells stably expressing the ASC-GFP fusion protein (InvivoGen Catalog #: thp-ascgfp) were used to visualize the inhibitory effect of SAH-POP1-17 on ASC specks formation (Fernandes-Alnemri et al., 2007). […] SAH-POP1-17 at 5 μM inhibited ASC speck formation to 4%, and SAH-POP1-18 at 5 μM inhibited ASC speck formation to 8%.

GST-NLRP3^PYD = molecular target: T1, GST-NLRP3^PYD (Homo sapiens, UniProt Q96P20); test: KD (μM) | GST-NLRP3^PYD
T1 construct: human NLRP3 (residues 3-110) was cloned into a pET-21b vector; made in house; host or cells: E. coli BL21 DE3
T1 sequence (Q96P20 3-110): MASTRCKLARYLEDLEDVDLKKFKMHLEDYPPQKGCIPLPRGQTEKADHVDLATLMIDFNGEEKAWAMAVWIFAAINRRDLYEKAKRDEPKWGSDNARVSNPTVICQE
From the text: (§1) Table printed on a drawing sheet, FIG. 10
Head of the field: KD (μM) | GST-NLRP3^PYD
(§2) The patent's description of the figure: FIG. 10 is a table showing the results from a fluorescence anisotropy binding assay to determine the accurate binding affinities of stapled peptides fPOP1-H2 (SEQ ID NO: 2), fSAH-POP1-1 (SEQ ID NO: 1), fSAH-POP1-3 (SEQ ID NO: 3), fSAH-POP1-4 (SEQ ID NO: 4), fSAH-POP1-5 (SEQ ID NO: 5), fSAH-POP1-6 (SEQ ID NO: 6), fSAH-POP1-7 (SEQ ID NO: 7), fSAH-POP1-8 (SEQ ID NO: 8), fSAH-POP1-9 (SEQ ID NO: 9), fSAH-POP1-10 (SEQ ID NO: 10), fSAH-POP1-11 (SEQ ID NO: 11), fSAH-POP1-12 (SEQ ID NO: 12), fSAH-POP1-13 (SEQ ID NO: 13), fSAH-POP1-14 (SEQ ID NO: 14), fSAH-POP1-15 (SEQ ID NO: 15), fSAH-POP1-16 (SEQ ID NO: 16), fSAH-POP1-17 (SEQ ID NO: 17), fSAH-POP1-18 (SEQ ID NO: 18), fSAH-POP1-19 (SEQ ID NO: 19), fSAH-POP1-20 (SEQ ID NO: 20), fSAH-POP1-21 (SEQ ID NO: 21), fSAH-POP1-22 (SEQ ID NO: 22), fSAH-POP1-23 (SEQ ID NO: 23), fSAH-POP1-24 (SEQ ID NO: 24), fSAH-POP1-25 (SEQ ID NO: 25), fSAH-POP1-26 (SEQ ID NO: 26), fSAH-POP1-27 (SEQ ID NO: 27), fSAH-POP1-28 (SEQ ID NO: 28), fSAH-POP1-29 (SEQ ID NO: 29), fSAH-POP1-30 (SEQ ID NO: 30), fSAH-POP1-31 (SEQ ID NO: 31).
(§3) First copying reader's note: Second part of the same figure; in the structures S5, NL (N with lowered L) and NH2 carry lowered signs, a drawn bracket joins the two S5 residues (staple), and the SEQ ID NO column is printed outside the table frame.
Where the first naming reader finds the target: head: GST-NLRP3^PYD

GST-ASC^PYD = molecular target: T2, GST-ASC^PYD (Homo sapiens, UniProt Q9ULZ3); test: KD (μM) | GST-ASC^PYD
T2 construct: human ASC (residues 1-106) was cloned into a pGEX-4T1 vector; made in house; host or cells: E. coli BL21 DE3
T2 sequence (Q9ULZ3 1-106): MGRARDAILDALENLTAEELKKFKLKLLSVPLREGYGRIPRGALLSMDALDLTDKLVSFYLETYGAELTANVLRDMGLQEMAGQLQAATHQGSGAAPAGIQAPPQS
From the text: as §1
Head of the field: KD (μM) | GST-ASC^PYD
as §2, §3
Where the first naming reader finds the target: head: GST-ASC^PYD

[2] = Circular dichroism (CD) secondary structure of the peptides; type: physicochemical; settings: aqueous solution; 100 μM peptide in 10 mM potassium phosphate, 100 mM potassium fluoride buffer (pH=7.5)
Procedure: Circular dichroism (CD) was used to determine the secondary structure of the peptides. […] Hydrocarbon stapling promoted α-helix contents with SAH-POP1-4 and SAH-POP1-8 having the highest in aqueous solution.
CD spectra were recorded on an AVIV Model 215 Circular Dichroism Spectrometer. Each spectrum was collected with the wavelength between 190 to 260 nm, 0.5 nm increments, and 0.5 s averaging time using a 1-mm path length cell. The peptide concentration was 100 μM in 10 mM potassium phosphate and 100 mM potassium fluoride buffer (pH=7.5). The studied peptides were completely dissolved in this buffer. CD spectra were initially plotted as wavelength versus millidgree, the default output of the instrument. Once the precise peptide concentration was confirmed, the mean residue ellipticity [Θ] was calculated for the y-axis.

Molecule | Kd (GST-NLRP3^PYD) | Kd (GST-ASC^PYD) | further results
SAH-POP1-18: Stapled peptide synthesized by FIG. 11, SEQ ID NO: 45 (Q[S5]LRR[S5]QWFLWTA-NH2; staple 2-6; N-terminus assumed; SMILES CC(C)C[C@H](NC(=O)[C@H](Cc1ccccc1)NC(=O)[C@H](Cc1c[nH]c2ccccc12)NC(=O)[C@H](CCC(N)=O)NC(=O)[C@]1(C)CCCC=CCCC[C@](C)(NC(=O)[C@@H](N)CCC(N)=O)C(=O)N[C@@H](CC(C)C)C(=O)N[C@@H](CCCNC(=N)N)C(=O)N[C@@H](CCCNC(=N)N)C(=O)N1)C(=O)N[C@@H](Cc1c[nH]c2ccccc12)C(=O)N[C@H](C(=O)N[C@@H](C)C(N)=O)[C@@H](C)O) | – | – | ASC speck formation remaining with inhibitor [1]: 8%
SAH-POP1-17: Stapled peptide synthesized by FIG. 11, SEQ ID NO: 44 (QXLRRXQWXLWTA; hydrocarbon staple; (2)..(2) X= S5=(S)-2-(4-pentenyl)alanineS5, the two Xs are also directly connected by a double bond; (6)..(6) X= S5=(S)-2-(4-pentenyl)alanineS5, the two Xs are also directly connected by a double bond; (9)..(9) X= NL = norleucine) | – | – | ASC speck formation remaining with inhibitor [1]: 4%
CCCC[C@H](NC(=O)[C@H](Cc1c[nH]c2ccccc12)NC(=O)[C@H](CCC(N)=O)NC(=O)[C@]1(C)CCCC=CCCC[C@](C)(NC(=O)[C@H](CCC(N)=O)NC(=O)CCNC(=S)Nc2ccc3c(c2)C(=O)OC32c3ccc(O)cc3Oc3cc(O)ccc32)C(=O)N[C@@H](CO)C(=O)N[C@@H](CCCNC(=N)N)C(=O)N[C@@H](CCCNC(=N)N)C(=O)N1)C(=O)N[C@@H](CCC(N)=O)C(=O)N[C@@H](Cc1c[nH]c2ccccc12)C(=O)N[C@H](C(=O)N[C@@H](C)C(N)=O)[C@@H](C)O [fSAH-POP1-26] ({FITC-βAla}-Q[S5]SRR[S5]QW[Nle]QWTA-NH2; staple 2-6) | 11 ± 1.1 µM | 5 ± 0.79 µM | –
CCCC[C@H](NC(=O)[C@H](Cc1c[nH]c2ccccc12)NC(=O)[C@H](CCC(N)=O)NC(=O)[C@]1(C)CCCC=CCCC[C@](C)(NC(=O)[C@H](CCC(N)=O)NC(=O)CCNC(=S)Nc2ccc3c(c2)C(=O)OC32c3ccc(O)cc3Oc3cc(O)ccc32)C(=O)N[C@@H](CC(C)C)C(=O)N[C@@H](CCCNC(=N)N)C(=O)N[C@@H](CCCNC(=N)N)C(=O)N1)C(=O)N[C@@H](CC(C)C)C(=O)N[C@@H](CC(N)=O)C(=O)N[C@H](C(=O)N[C@@H](C)C(N)=O)[C@@H](C)O [fSAH-POP1-30] ({FITC-βAla}-Q[S5]LRR[S5]QW[Nle]LNTA-NH2; staple 2-6) | 6.7 ± 1.2 µM | 7.5 ± 1.1 µM | –
CCCC[C@H](NC(=O)[C@H](Cc1c[nH]c2ccccc12)NC(=O)[C@H](CCC(N)=O)NC(=O)[C@]1(C)CCCC=CCCC[C@](C)(NC(=O)[C@H](CCC(N)=O)NC(=O)CCNC(=S)Nc2ccc3c(c2)C(=O)OC32c3ccc(O)cc3Oc3cc(O)ccc32)C(=O)N[C@@H](CC(C)C)C(=O)N[C@@H](CCCNC(=N)N)C(=O)N[C@@H](CCCNC(=N)N)C(=O)N1)C(=O)N[C@@H](CC(C)C)C(=O)N[C@@H](CC(=O)O)C(=O)N[C@H](C(=O)N[C@@H](C)C(N)=O)[C@@H](C)O [fSAH-POP1-29] ({FITC-βAla}-Q[S5]LRR[S5]QW[Nle]LDTA-NH2; staple 2-6) | 6 ± 0.92 µM | 5.5 ± 0.69 µM | –
POP1-H2: Reference peptide, unstapled, amino acid sequence EELKKFKMKLGTV [reference compound] | – | – | α-helical structure / α-helix contents by circular dichroism [2]: does not exhibit α-helical structure
CO[C@@H]1C[C@@H](C[C@H]2CC[C@H](C)[C@H]([C@@H](C)C(=O)O)O2)O[C@]2(O[C@](C)([C@H]3CC[C@@](C)([C@@H]4O[C@@H]([C@H]5O[C@@](O)(CO)[C@H](C)C[C@@H]5C)C[C@@H]4C)O3)C[C@H]2C)[C@@H]1C [nigericin, reference compound] | – | – | activation of ASC speck formation ([1]; nigericin at 2 μM): activated ASC speck formation; ASC speck formation activated ([1]; nigericin at 5 μM, no inhibitor): 38%
CCCC[C@H](NC(=O)[C@H](Cc1c[nH]c2ccccc12)NC(=O)[C@H](CCC(N)=O)NC(=O)[C@]1(C)CCCC=CCCC[C@](C)(NC(=O)[C@H](CCC(N)=O)NC(=O)CCNC(=S)Nc2ccc3c(c2)C(=O)OC32c3ccc(O)cc3Oc3cc(O)ccc32)C(=O)N[C@@H](CC(C)C)C(=O)N[C@@H](CCCNC(=N)N)C(=O)N[C@@H](CCCNC(=N)N)C(=O)N1)C(=O)N[C@@H](CC(C)C)C(=O)NCC(=O)N[C@H](C(=O)N[C@@H](C)C(N)=O)[C@@H](C)O [fSAH-POP1-28] ({FITC-βAla}-Q[S5]LRR[S5]QW[Nle]LGTA-NH2; staple 2-6) | 7.7 ± 1.5 µM | 7.2 ± 1.1 µM | –
CCCC[C@H](NC(=O)[C@H](Cc1c[nH]c2ccccc12)NC(=O)[C@H](CCC(N)=O)NC(=O)[C@]1(C)CCCC=CCCC[C@](C)(NC(=O)[C@H](CCC(N)=O)NC(=O)CCNC(=S)Nc2ccc3c(c2)C(=O)OC32c3ccc(O)cc3Oc3cc(O)ccc32)C(=O)N[C@@H](CC(C)C)C(=O)N[C@@H](CCCNC(=N)N)C(=O)N[C@@H](CCCNC(=N)N)C(=O)N1)C(=O)N[C@@H](CC(C)C)C(=O)N[C@@H](CO)C(=O)N[C@H](C(=O)N[C@@H](C)C(N)=O)[C@@H](C)O [fSAH-POP1-31] ({FITC-βAla}-Q[S5]LRR[S5]QW[Nle]LSTA-NH2; staple 2-6) | 4.7 ± 0.54 µM | 7.8 ± 1.1 µM | –
CCCC[C@H](NC(=O)[C@H](Cc1c[nH]c2ccccc12)NC(=O)[C@H](CCCCN)NC(=O)[C@]1(C)CCCC=CCCC[C@](C)(NC(=O)[C@H](CCC(N)=O)NC(=O)CCNC(=S)Nc2ccc3c(c2)C(=O)OC32c3ccc(O)cc3Oc3cc(O)ccc32)C(=O)N[C@@H](CO)C(=O)N[C@@H](CCCNC(=N)N)C(=O)N[C@@H](CCCNC(=N)N)C(=O)N1)C(=O)N[C@@H](CCC(N)=O)C(=O)N[C@@H](Cc1c[nH]c2ccccc12)C(=O)N[C@H](C(=O)N[C@@H](C)C(N)=O)[C@@H](C)O [fSAH-POP1-27] ({FITC-βAla}-Q[S5]SRR[S5]KW[Nle]QWTA-NH2; staple 2-6) | 7.9 ± 1.1 µM | 3.9 ± 0.68 µM | –
